The assay deals with T1, human IRAK4 (Homo sapiens, UniProt Q9NWZ3).
T1 construct: GST (N); made in house; host or cells: baculovirus-infected Hi5 (BTI-TN-5B1-4) insect cells
T1 sequence (Q9NWZ3 1-460): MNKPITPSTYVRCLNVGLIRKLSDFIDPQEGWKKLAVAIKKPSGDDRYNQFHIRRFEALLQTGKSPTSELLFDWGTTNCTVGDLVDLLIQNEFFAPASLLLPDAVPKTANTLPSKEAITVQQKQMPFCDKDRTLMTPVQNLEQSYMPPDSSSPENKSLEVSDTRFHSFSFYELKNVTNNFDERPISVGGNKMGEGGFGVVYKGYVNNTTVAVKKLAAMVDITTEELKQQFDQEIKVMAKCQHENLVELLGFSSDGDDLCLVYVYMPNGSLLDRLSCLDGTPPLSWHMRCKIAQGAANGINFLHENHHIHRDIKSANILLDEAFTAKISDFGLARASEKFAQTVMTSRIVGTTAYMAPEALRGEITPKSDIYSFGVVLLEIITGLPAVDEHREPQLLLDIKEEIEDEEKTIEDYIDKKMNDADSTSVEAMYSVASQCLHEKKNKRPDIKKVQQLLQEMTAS
Nature of the assay: Human IRAK4 kinase activity inhibition assay (IRAK4 TR-FRET assay). The assay is classed as biochemical. As to conditions: 1 mM ATP, GST-human IRAK4, average or median values. As for the experimental part:
The IRAK4-inhibitory activity of the inventive substances was measured in the IRAK4 TR-FRET assay (TR-FRET = Time Resolved Fluorescence Resonance Energy Transfer) described hereinafter.
Recombinant fusion protein from N-terminal GST (glutathione S-transferase) and human IRAK4, expressed in baculovirus-infected insect cells (Hi5, BTI-TN-5B1-4, cell line purchased from Invitrogen, catalogue No. B855-02) and purified via affinity chromatography, was used as enzyme. The substrate used for the kinase reaction was the biotinylated peptide biotin-Ahx-[…] (C-terminus in amide form) which can be purchased, for example, from Biosyntan GmbH (Berlin-Buch). For the assay, 11 different concentrations in the range from 20 µM to 0.073 nM were prepared from a 2 mM DMSO solution of the test substance. 50 nl of the respective 100fold concentrated test compound solutions in DMSO were pipetted into a black low-volume 384-well microtitre plate or a black 1536-well microtiter plate (both Greiner Bio-One, Frickenhausen, Germany), 2 µl of a solution of IRAK4 in assay buffer [50 mM HEPES pH 7.5, 5mM MgCl2, 1.0 mM dithiothreitol, 30 µM activated sodium orthovanadate, 0.1% (w/v) of bovine gamma-globulin (BGG) 0.04% (v/v) nonidet-P40 (Sigma)] were added and the mixture was incubated for 15 min to allow prebinding of the substances to the enzyme prior to the kinase reaction. […] The concentration of the IRAK4 was adjusted to the respective activity of the enzyme and set such that the assay was carried out in the linear range. Typical concentrations were in the order of about 0.2 nM. The reaction was stopped by addition of 5 µl of a solution of TR-FRET detection reagents [0.1 µM streptavidin-XL665 (Cisbio Bioassays; France, catalogue No. 610SAXLG)] and 1.5 nM anti-phosphoserine antibody [Merck Millipore, "STK Antibody", catalogue No. 35-002] and 0.6 nM LANCE EU-W1024-labelled anti-mouse-IgG antibody (Perkin-Elmer, product No. AD0077; alternatively, it is possible to use a terbium cryptate-labelled anti-mouse-IgG antibody from Cisbio Bioassays) in aqueous EDTA solution (100 mM EDTA, 0.4 % [w/v] bovine serum albumin [BSA] in 25 mM HEPES pH 7.5). The resulting mixture was incubated at 22°C for 1 h to allow formation of a complex of the biotinylated phosphorylated substrate and the detection reagents. The amount of the phosphorylated substrate was then evaluated by measuring the resonance energy transfer from europium chelate-labelled anti-mouse-IgG antibody to streptavidin-XL665. To this end, the fluorescence emissions at 620 nm and 665 nm were measured after excitation at 350 nm in a TR-FRET measuring instrument, for example a Rubystar (BMG Labtechnologies, Offenburg, Germany) or a Viewlux (Perkin-Elmer). The ratio of the emissions at 665 nm and 622 nm was taken as a measure of the amount of phosphorylated substrate. The data were normalized (enzyme reaction without test substance = 0% inhibition; all other assay components but no enzyme = 100% inhibition).

pIC50: −log10 of the molar value.

19 compounds from patent EP3800188A1, “SUBSTITUTED PYRAZOLOPYRIMIDINES AS IRAK4 INHIBITORS” (Bayer AG, priority 2019, dated 2021) can be followed below.

In the case of `NC1CCN(c2nc(N[C@H]3C[C@H](O)C3)nc3c2cnn3-c2cccc(C(F)(F)F)c2)CC1(F)F` (mixture of isomers) [Example I-104, trans-3-({4-[(4RS)-4-amino-3,3-difluoropiperidin-1-yl]-1-[3-(trifluoromethyl)phenyl]-1H-pyrazolo[3,4-d]pyrimidin-6-yl}amino)cyclobutanol], the pIC50 is 6.75.

Turning to `NC1CCN(c2nc(NC3CCS(=O)(=O)CC3)nc3c2cnn3-c2cccc(C(F)(F)F)c2)CC1(F)F` (racemic) [Example I-105, 4-[(4RS)-4-amino-3,3-difluoropiperidin-1-yl]-N-(1,1-dioxidotetrahydro-2H-thiopyran-4-yl)-1-[3-(trifluoromethyl)phenyl]-1H-pyrazolo[3,4-d]pyrimidin-6-amine], the pIC50 was 6.55. `CC(C)(O)C1CCN(c2nc(N[C@@H]3CNC[C@H]3F)nc3c2cnn3-c2cccc(C(F)(F)F)c2)CC1` (relative stereo) [Example I-65, 2-[1-(6-{[rel-(3R,4R)-4-fluoropyrrolidin-3-yl]amino}-1-[3-(trifluoromethyl)phenyl]-1H-pyrazolo[3,4-d]pyrimidin-4-yl)piperidin-4-yl]propan-2-ol] gave a pIC50 of 7.81. As for `O[C@H]1COC[C@H]1Nc1nc(N2CC(N3CCOCC3)C2)c2cnn(-c3cccc(C(F)(F)F)c3)c2n1` (relative stereo) [Example I-70, rel-(3R,4R)-4-({4-[3-(morpholin-4-yl)azetidin-1-yl]-1-[3-(trifluoromethyl)phenyl]-1H-pyrazolo[3,4-d]pyrimidin-6-yl}amino)tetrahydrofuran-3-ol], the pIC50 is 7.60.

`O[C@@H]1CC[C@@H]1Nc1nc(N2CC(N3CCOCC3)C2)c2cnn(-c3cccc(C(F)(F)F)c3)c2n1` (relative stereo) [Example I-73, rel-(1R,2S)-2-({4-[3-(morpholin-4-yl)azetidin-1-yl]-1-[3-(trifluoromethyl)phenyl]-1H-pyrazolo[3,4-d]pyrimidin-6-yl}amino)cyclobutanol] had a pIC50 of 7.55. As to `O[C@@H]1CC[C@H]1Nc1nc(N2CC(N3CCOCC3)C2)c2cnn(-c3cccc(C(F)(F)F)c3)c2n1` (relative stereo) [Example I-75, rel-(1R,2R)-2-({4-[3-(morpholin-4-yl)azetidin-1-yl]-1-[3-(trifluoromethyl)phenyl]-1H-pyrazolo[3,4-d]pyrimidin-6-yl}amino)cyclobutanol], the pIC50 was 7.85.

`CS(=O)(=O)[C@H]1C[C@H](Nc2nc(N3C[C@@H](O)[C@H](F)C3)c3cnn(-c4cccc(C(F)F)c4)c3n2)C1` (relative stereo) [II-16-1, rel-(3R,4R)-1-(1-[3-(difluoromethyl)phenyl]-6-{[trans-3-(methylsulfonyl)cyclobutyl]-amino)-1H-pyrazolo[3,4-d]pyrimidin-4-yl)-4-fluoropyrrolidin-3-ol] gave a pIC50 of 8.87. Against the preceding compound, the pIC50 is 1.02 log units higher. Regarding `C[C@H]1CN(c2nc(N[C@H]3C[C@H](S(C)(=O)=O)C3)nc3c2cnn3-c2cccc(C(F)F)c2)C[C@@H]1O` (single isomer, unassigned) [II-17-3, (3R*,4S*)-1-(1-[3-(difluoromethyl)phenyl]-6-{[trans-3-(methylsulfonyl)cyclobutyl]amino}-1H-pyrazolo[3,4-d]pyrimidin-4-yl)-4-methylpyrrolidin-3-ol], the pIC50 was 8.38.

In turn, `CC(C)(O)C1CCN(c2nc(NC3CCS(=O)(=O)C3)nc3c2cnn3-c2cccc(C(F)(F)F)c2)CC1` (single isomer, unassigned; (-)) [Example I-4-3, (-)-2-(1-{6-[(1,1-dioxidotetrahydrothiophen-3-yl)amino]-1-[3-(trifluoromethyl)phenyl]-1H-pyrazolo[3,4-d]pyrimidin-4-yl}piperidin-4-yl)propan-2-ol] gave a pIC50 of 7.16. Compared with the last compound, the pIC50 is 1.22 log units lower.

As for `O=C1C[C@@H](Nc2nc(N3CC(N4CCOCC4)C3)c3cnn(-c4cccc(C(F)(F)F)c4)c3n2)CN1` [Example I-1-2, (4R)-4-({4-[3-(morpholin-4-yl)azetidin-1-yl]-1-[3-(trifluoromethyl)phenyl]-1H-pyrazolo-[3,4-d]pyrimidin-6-yl}amino)pyrrolidin-2-one], the pIC50 was 7.07. This pIC50 and that of the compound before are within 0.2 log units of each other. Compound `CC(C)(O)C1CCN(c2nc(N[C@H]3CNC(=O)C3)nc3c2cnn3-c2cccc(C(F)(F)F)c2)CC1` [Example I-2-2, (4R)-4-({4-[4-(2-hydroxypropan-2-yl)piperidin-1-yl]-1-[3-(trifluoromethyl)phenyl]-1H-pyrazolo[3,4-d]pyrimidin-6-yl}amino)pyrrolidin-2-one] had a pIC50 of 7.50. Compared with the last compound, the pIC50 is 0.43 log units higher. `CC(C)(O)C1CCN(c2nc(NC3CNC(=O)C3)nc3c2cnn3-c2cccc(C(F)(F)F)c2)CC1` (stereo not shown) [Example I-2-3, 4-({4-[4-(2-hydroxypropan-2-yl)piperidin-1-yl]-1-[3-(trifluoromethyl)phenyl]-1H-pyrazolo[3,4-d]pyrimidin-6-yl}amino)pyrrolidin-2-one] gave a pIC50 of 8.01. With `CCC1(O)CN(c2nc(N[C@H]3CNC(=O)C3)nc3c2cnn3-c2cccc(C(F)(F)F)c2)C1` [Example I-3-2, (4R)-4-({4-(3-ethyl-3-hydroxyazetidin-1-yl)-1-[3-(trifluoromethyl)phenyl]-1H-pyrazolo[3,4-d]pyrimidin-6-yl}amino)pyrrolidin-2-one], the pIC50 is 6.78. The figure for `CC(C)(O)C1CCN(c2nc(NC3CCS(=O)(=O)C3)nc3c2cnn3-c2cccc(C(F)(F)F)c2)CC1` (stereo not shown) [Example I-4-1, 2-(1-{6-[(1,1-dioxidotetrahydrothiophen-3-yl)amino]-1-[3-(trifluoromethyl)phenyl]-1H-pyrazolo[3,4-d]pyrimidin-4-yl}piperidin-4-yl)propan-2-ol] is 7.91. `CC(C)(O)C1CCN(c2nc(NC3CC(=O)NC3(C)C)nc3c2cnn3-c2cccc(C(F)(F)F)c2)CC1` (stereo not shown) [Example I-6, 4-({4-[4-(2-hydroxypropan-2-yl)piperidin-1-yl]-1-[3-(trifluoromethyl)phenyl]-1H-pyrazolo-[3,4-d]pyrimidin-6-yl}amino)-5,5-dimethylpyrrolidin-2-one] showed a pIC50 of 7.11. `CC(C)(O)C1CCN(c2nc(N[C@@H]3CCC(=O)NC3)nc3c2cnn3-c2cccc(C(F)(F)F)c2)CC1` [Example I-7-1, (5R)-5-({4-[4-(2-hydroxypropan-2-yl)piperidin-1-yl]-1-[3-(trifluoromethyl)phenyl]-1H-pyrazolo[3,4-d]pyrimidin-6-yl}amino)piperidin-2-one] showed a pIC50 of 7.94. Turning to `CC(C)(O)C1CCN(c2nc(N[C@H]3CCC(=O)NC3)nc3c2cnn3-c2cccc(C(F)(F)F)c2)CC1` [Example I-7-2, (5S)-5-({4-[4-(2-hydroxypropan-2-yl)piperidin-1-yl]-1-[3-(trifluoromethyl)phenyl]-1H-pyrazolo[3,4-d]pyrimidin-6-yl}amino)piperidin-2-one], the pIC50 was 7.47.

`CN1CC(Nc2nc(N3CCC(C(C)(C)O)CC3)c3cnn(-c4cccc(C(F)(F)F)c4)c3n2)CC1=O` (stereo not shown) [Example I-8, 4-({4-[4-(2-hydroxypropan-2-yl)piperidin-1-yl]-1-[3-(trifluoromethyl)phenyl]-1H-pyrazolo[3,4-d]pyrimidin-6-yl}amino)-1-methylpyrrolidin-2-one] gave a pIC50 of 7.38. This pIC50 and that of the compound before are within 0.2 log units of each other. As for `CN1CC[C@@H](Nc2nc(N3CCC(C(C)(C)O)CC3)c3cnn(-c4cccc(C(F)(F)F)c4)c3n2)C1=O` [Example I-9, (3R)-3-({4-[4-(2-hydroxypropan-2-yl)piperidin-1-yl]-1-[3-(trifluoromethyl)phenyl]-1H-pyrazolo[3,4-d]pyrimidin-6-yl}amino)-1-methylpyrrolidin-2-one], the negative logarithm of the IC50 (pIC50) was 7.23.
